Test results taken from patent US4485110A, “β-Lactam compounds, and use” (priority 1980, dated 1984).
“And” between values parts separate entries of the source, which are not always exact repeats. Identical values can stand only once.

Columns and labels:
Format in all cases: cell-based
S. aureus MB9 = experiment: β-Lactamase inhibitory activity: antibiotic MIC alone or in combination; conditions: compound alone, 5.0 μg/ml
Description: (§1) These tables show the MIC values of amoxycillin, cephaloridine, ticarcillin and apalcillin against a number of β-lactamase producing organisms.

S. aureus Russell [1] = experiment: as above
Description: as §1

[2] = tested on: β-lactamase producing organisms; experiment: β-Lactamase inhibitory activity: synergistic properties; conditions: addition of the compound, Tables 2-5
Description: as §1

S. pyogenes CN 10 = experiment: Antibacterial activity, broth MIC; conditions: Streptococcus pyogenes, CN10, compound alone
Description: (§2) The antibacterial activity of a number of compounds described in the foregoing Examples against a number of organisms is shown in Tables 1 and 10.

S. aureus Oxford = experiment: Antibacterial activity, broth MIC; conditions: Staphylococcus aureus, compound alone
Description: as §2

S. typhimurium CT 10 = experiment: Antibacterial activity, broth MIC; conditions: Salmonella enterica, compound alone
Description: as §2

E. coli 0111 [3] = experiment: Antibacterial activity, broth MIC; conditions: Escherichia coli, compound alone
Description: as §2

S. faecalis I = experiment: Antibacterial activity, broth MIC; conditions: Enterococcus faecalis; compound alone, broth; read-out: Broth MIC
Description: as §2

P. rettgeri WM 16 = experiment: Antibacterial activity, broth MIC; conditions: Providencia rettgeri, WM16, compound alone
Description: as §2

S. aureus Russell [4] = experiment: Antibacterial activity, broth MIC; conditions: Staphylococcus aureus, compound alone
Description: as §2

K. aerogenes A = experiment: Antibacterial activity, broth MIC; conditions: Klebsiella aerogenes; compound alone, broth; read-out: Broth MIC
Description: as §2

E. coli JT 39 R^+ = experiment: Antibacterial activity, broth MIC; conditions: Escherichia coli; compound alone, broth; read-out: Broth MIC
Description: as §2

S. marcescens US 20 = experiment: Antibacterial activity, broth MIC; conditions: Serratia marcescens, US20; compound alone, broth; read-out: Broth MIC
Description: as §2

P. morganii I 580 = experiment: Antibacterial activity, broth MIC; conditions: Morganella morganii, I580, compound alone
Description: as §2

S. aureus 1517 = experiment: Antibacterial activity, broth MIC; conditions: Staphylococcus aureus, compound alone
Description: as §2

P. mirabilis 977 [5] = experiment: Antibacterial activity, broth MIC; conditions: Proteus mirabilis, compound alone
Description: as §2

E. cloacae N 1 = experiment: Antibacterial activity, broth MIC; conditions: Enterobacter cloacae, N1, compound alone
Description: as §2

P. aeruginosa A [6] = experiment: Antibacterial activity, broth MIC; conditions: Pseudomonas aeruginosa, compound alone
Description: as §2

S. pneumoniae CN 33 = experiment: Antibacterial activity, broth MIC; conditions: Streptococcus pneumoniae, CN33, compound alone
Description: as §2

S. sonnei MB 11967 = experiment: Antibacterial activity, broth MIC; conditions: Shigella sonnei, MB11967, compound alone
Description: as §2

P. vulgaris WO 91 = experiment: Antibacterial activity, broth MIC; conditions: Proteus vulgaris, WO91, compound alone
Description: as §2

C. freundii E 8 = experiment: Antibacterial activity, broth MIC; conditions: Citrobacter freundii, E8; compound alone, broth; read-out: Broth MIC
Description: as §2

E. cloacae T 153 = experiment: β-Lactamase inhibitory activity: antibiotic MIC alone or in combination; conditions: Enterobacter cloacae, T153; amoxycillin alone
E. cloacae N1 = experiment: as above; conditions: Enterobacter cloacae, N1, amoxycillin alone; read-out: Amoxycillin MIC
P. rettgeri WM16 = experiment: as above
Description: as §1

P. vulgaris WO91 = experiment: as above
Description: as §1

P. mirabilis 889 = experiment: as above; conditions: Proteus mirabilis, 889, amoxycillin alone; read-out: Amoxycillin MIC
Description: as §1

E. coli 0111 [7] = experiment: as above
Description: as §1

E. coli JT410 C+ = experiment: as above; conditions: amoxycillin alone
Description: as §1

K. aerogenes I112 = experiment: as above
Description: as §1

C. freundii B10R+ = experiment: as above; conditions: Citrobacter freundii, read-out: Amoxycillin MIC
Description: as §1

P. aeruginosa Dalgleish = experiment: as above; conditions: Pseudomonas aeruginosa; amoxycillin alone; read-out: Amoxycillin MIC
Description: as §1

E. coli JT39R+ = experiment: as above
Description: as §1

P. morganii 1580 = experiment: as above
Description: as §1

P. mirabilis 977 [8] = experiment: as above; conditions: Proteus mirabilis, 977, amoxycillin alone; read-out: Amoxycillin MIC
Description: as §1

P. aeruginosa A [9] = experiment: as above; conditions: Pseudomonas aeruginosa; amoxycillin alone; read-out: Amoxycillin MIC
Description: as §1

E. coli JT20R+ = experiment: as above; conditions: Escherichia coli, read-out: Amoxycillin MIC
Description: as §1

K. aerogenes Ba95R+ = experiment: as above; conditions: Klebsiella aerogenes, read-out: Amoxycillin MIC
Description: as §1

C. freundii E8 = experiment: as above
Description: as §1

C/C=C1/C(=O)N2C(C(=O)O)=C(SCC)SC12 (racemic) [Compound 27, (5RS)-Sodium(Z)-6-Ethylidene-2-ethylthiopenem-3-carboxylate]
Inhibition by compound alone (footnote) (S. aureus MB9): inhibitory | Inhibition by compound alone (footnote) (S. aureus Russell [1]; compound alone, 5.0 μg/ml): inhibitory | Effect on MIC of amoxycillin, cephaloridine, ticarcillin and apalcillin [2]: marked decrease in the MIC | MIC (S. pyogenes CN 10): 4 µg/mL | MIC (S. aureus Oxford): 2 µg/mL | MIC (S. typhimurium CT 10): 16 µg/mL | MIC (E. coli 0111 [3]): 31 µg/mL | MIC (S. faecalis I): 250 µg/mL | MIC (P. rettgeri WM 16): 62 µg/mL | MIC (S. aureus Russell [4]): 4 µg/mL | MIC (K. aerogenes A): 16 µg/mL | MIC (E. coli JT 39 R^+): 16 µg/mL | MIC (S. marcescens US 20): 62 µg/mL | MIC (P. morganii I 580): 31 µg/mL | MIC (S. aureus 1517): 16 µg/mL | MIC (P. mirabilis 977 [5]): 31 µg/mL | MIC (E. cloacae N 1): 31 µg/mL | MIC (P. aeruginosa A [6]): > 500 µg/mL | MIC (S. pneumoniae CN 33): 2 µg/mL | MIC (S. sonnei MB 11967): 31 µg/mL | MIC (P. vulgaris WO 91): 31 µg/mL | MIC (C. freundii E 8): 31 µg/mL

CC1(C)S[C@@H]2[C@H](NC(=O)[C@H](N)c3ccc(O)cc3)C(=O)N2[C@H]1C(=O)O [Amoxycillin]
MIC (E. cloacae T 153): 1000 µg/mL | MIC (E. cloacae N1): 500 µg/mL | MIC (P. rettgeri WM16; Providencia rettgeri, WM16, amoxycillin alone, read-out: Amoxycillin MIC): 1000 µg/mL | Amoxycillin MIC (P. rettgeri WM16; amoxycillin alone): 500 µg/mL | MIC (P. vulgaris WO91; Proteus vulgaris, WO91, amoxycillin alone, read-out: Amoxycillin MIC): > 1000 µg/mL | Amoxycillin MIC (P. vulgaris WO91; amoxycillin alone): 1000 µg/mL | MIC (P. mirabilis 889): > 1000 µg/mL | MIC (E. coli 0111 [7]; Escherichia coli, 0111, amoxycillin alone, read-out: Amoxycillin MIC): 10 µg/mL | Amoxycillin MIC (E. coli 0111 [7]; amoxycillin alone): 5 µg/mL and 5.0 µg/mL | MIC (E. coli JT410 C+; Escherichia coli, read-out: Amoxycillin MIC): 250 µg/mL | Amoxycillin MIC (E. coli JT410 C+): 500 µg/mL | MIC (K. aerogenes I112; Klebsiella aerogenes, I112, read-out: Amoxycillin MIC, amoxycillin alone): 500 µg/mL | Amoxycillin MIC (K. aerogenes I112; amoxycillin alone): 250 µg/mL | MIC (C. freundii B10R+): > 1000 µg/mL | MIC (S. aureus Russell [1]; Staphylococcus aureus, amoxycillin alone, read-out: Amoxycillin MIC): 100 µg/mL | MIC (P. aeruginosa Dalgleish): > 1000 µg/mL | MIC (E. coli JT39R+; Escherichia coli, read-out: Amoxycillin MIC, amoxycillin alone): > 1000 µg/mL | Amoxycillin MIC (E. coli JT39R+; amoxycillin alone): 1000 µg/mL | MIC (P. morganii 1580; Morganella morganii, 1580, amoxycillin alone, read-out: Amoxycillin MIC): 1000 µg/mL | Amoxycillin MIC (P. morganii 1580; amoxycillin alone): > 1000 µg/mL | MIC (P. mirabilis 977 [8]): 2.5 µg/mL | MIC (P. aeruginosa A [9]): > 1000 µg/mL | MIC (E. coli JT20R+): > 1000 µg/mL | MIC (K. aerogenes Ba95R+): > 1000 µg/mL | MIC (C. freundii E8; Citrobacter freundii, E8, amoxycillin alone, read-out: Amoxycillin MIC): 250 µg/mL | Amoxycillin MIC (C. freundii E8; amoxycillin alone): 500 µg/mL
